For the assay, the target named is Leucine-rich repeat serine/threonine-protein kinase 2 (Homo sapiens, UniProt Q5S007, G2019S). The assay is described as follows: Inhibition of GST-tagged truncated human LRRK2 G2019S mutant using fluorescein labeled LRRKtide peptide as substrate preincubated for 15 mins followed by substrate addition measured after 90 mins in presence of ATP at Km concentration by TR-FRET Lanthascreen assay. A general note: TR-FRET usually uses a lanthanide donor and a delayed reading to cut background.
Sequence of Leucine-rich repeat serine/threonine-protein kinase 2 (Q5S007 whole entry G2019S, the tested form may be a part): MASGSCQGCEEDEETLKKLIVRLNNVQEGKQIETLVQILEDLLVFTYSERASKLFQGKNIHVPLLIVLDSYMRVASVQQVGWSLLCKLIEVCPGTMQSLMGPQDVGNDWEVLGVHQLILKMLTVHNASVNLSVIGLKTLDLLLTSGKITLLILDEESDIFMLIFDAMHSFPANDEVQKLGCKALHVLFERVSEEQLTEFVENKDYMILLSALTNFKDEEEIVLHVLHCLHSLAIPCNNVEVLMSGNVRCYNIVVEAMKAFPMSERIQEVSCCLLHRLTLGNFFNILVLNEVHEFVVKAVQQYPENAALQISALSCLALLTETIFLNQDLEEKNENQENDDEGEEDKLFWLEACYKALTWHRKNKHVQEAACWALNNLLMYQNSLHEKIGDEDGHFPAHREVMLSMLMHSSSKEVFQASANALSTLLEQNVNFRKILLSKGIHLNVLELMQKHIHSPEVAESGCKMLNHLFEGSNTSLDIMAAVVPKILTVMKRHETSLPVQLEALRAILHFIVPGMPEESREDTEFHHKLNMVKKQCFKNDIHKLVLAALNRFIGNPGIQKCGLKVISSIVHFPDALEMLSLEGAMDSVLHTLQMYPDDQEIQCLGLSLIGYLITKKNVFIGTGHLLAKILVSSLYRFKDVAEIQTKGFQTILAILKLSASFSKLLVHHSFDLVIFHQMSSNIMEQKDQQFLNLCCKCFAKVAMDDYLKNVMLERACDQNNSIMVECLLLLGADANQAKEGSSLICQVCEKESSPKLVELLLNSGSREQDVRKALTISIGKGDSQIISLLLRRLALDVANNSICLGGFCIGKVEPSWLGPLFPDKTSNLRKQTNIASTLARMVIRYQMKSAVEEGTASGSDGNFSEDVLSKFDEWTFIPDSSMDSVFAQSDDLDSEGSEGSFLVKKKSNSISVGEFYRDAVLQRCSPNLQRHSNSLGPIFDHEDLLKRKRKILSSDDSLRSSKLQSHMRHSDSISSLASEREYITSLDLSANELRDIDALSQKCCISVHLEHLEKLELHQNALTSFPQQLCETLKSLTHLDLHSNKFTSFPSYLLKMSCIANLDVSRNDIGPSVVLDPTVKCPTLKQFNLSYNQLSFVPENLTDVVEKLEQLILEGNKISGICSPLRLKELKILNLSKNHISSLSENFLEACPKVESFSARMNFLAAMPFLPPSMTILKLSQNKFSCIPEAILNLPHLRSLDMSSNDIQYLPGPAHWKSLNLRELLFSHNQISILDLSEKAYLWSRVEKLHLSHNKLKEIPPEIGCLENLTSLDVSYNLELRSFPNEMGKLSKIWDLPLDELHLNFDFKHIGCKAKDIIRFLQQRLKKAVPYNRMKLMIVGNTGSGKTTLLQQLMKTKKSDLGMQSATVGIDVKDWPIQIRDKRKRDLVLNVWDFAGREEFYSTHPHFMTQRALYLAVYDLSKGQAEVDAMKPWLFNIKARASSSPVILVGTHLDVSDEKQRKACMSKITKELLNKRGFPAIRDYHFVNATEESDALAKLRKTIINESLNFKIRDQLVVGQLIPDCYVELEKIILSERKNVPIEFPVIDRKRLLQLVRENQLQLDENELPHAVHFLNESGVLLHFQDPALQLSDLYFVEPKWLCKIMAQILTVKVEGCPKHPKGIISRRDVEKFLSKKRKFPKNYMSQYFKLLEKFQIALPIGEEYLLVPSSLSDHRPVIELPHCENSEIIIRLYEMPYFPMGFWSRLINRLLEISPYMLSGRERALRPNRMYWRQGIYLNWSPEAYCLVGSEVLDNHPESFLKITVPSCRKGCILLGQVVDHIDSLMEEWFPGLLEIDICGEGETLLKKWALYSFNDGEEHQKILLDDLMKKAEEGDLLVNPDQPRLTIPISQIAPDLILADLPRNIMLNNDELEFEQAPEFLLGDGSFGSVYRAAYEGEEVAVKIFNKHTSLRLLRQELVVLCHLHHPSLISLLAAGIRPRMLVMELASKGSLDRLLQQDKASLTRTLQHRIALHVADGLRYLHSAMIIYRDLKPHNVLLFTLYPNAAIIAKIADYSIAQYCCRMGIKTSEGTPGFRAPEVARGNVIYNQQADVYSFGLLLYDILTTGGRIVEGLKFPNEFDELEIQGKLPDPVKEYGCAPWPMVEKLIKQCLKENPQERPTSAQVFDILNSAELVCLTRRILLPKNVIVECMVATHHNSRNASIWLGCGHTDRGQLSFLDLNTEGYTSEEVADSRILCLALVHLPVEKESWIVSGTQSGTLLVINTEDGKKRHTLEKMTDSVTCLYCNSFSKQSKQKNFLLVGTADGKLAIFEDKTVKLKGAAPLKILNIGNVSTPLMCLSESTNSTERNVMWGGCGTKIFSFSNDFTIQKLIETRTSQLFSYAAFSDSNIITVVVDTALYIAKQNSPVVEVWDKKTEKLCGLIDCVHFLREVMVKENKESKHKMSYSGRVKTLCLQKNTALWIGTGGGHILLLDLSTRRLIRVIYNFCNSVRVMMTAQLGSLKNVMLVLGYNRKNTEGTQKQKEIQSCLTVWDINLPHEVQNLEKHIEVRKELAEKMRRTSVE
Usually IC50 stands for the point on the concentration scale where inhibition reaches its midpoint. Regarding `OC1(c2cncs2)CCN(c2cc3c(cnn3-c3cnn(C4CC4)c3)cc2Cl)CC1`, the IC50 was determined as 0.0975 µM.

`[2H]C([2H])([2H])OCC12CC(n3cc(-n4ncc5cc(Cl)c(N6CCN([C@]7(C)COC[C@@H]7O)CC6)cc54)cn3)(C1)C2`: the IC50 worked out at 0.157 µM.

In the case of `CO[C@H]1COC[C@H]1N1CCN(c2cc3c(cnn3-c3cnn(C45CC(C4)C5)c3)cc2Cl)CC1`, the IC50 was determined as 0.104 µM.

Regarding `COCC12CC(n3cc(-n4ncc5cc(Cl)c(N6CCN([C@]7(C)COC[C@@H]7O)CC6)cc54)cn3)(C1)C2`, the IC50 is under 0.0804 µM.

Turning to `C[C@@]1(N2CCN(c3cc4c(cnn4-c4cnn(C56CC(C5)C6)c4)cc3Cl)CC2)CC[C@H]1O`, the IC50 is 0.154 µM.

With `Cc1cc2cnn(-c3cnn(C45CC(C4)C5)c3)c2cc1N1CCN([C@@H]2COC[C@@H]2O)CC1`, the IC50 was 0.259 µM.

Source of the values: ChEMBL document CHEMBL4680359, “1-Pyrazolyl-5,6-Disubstituted Indazole Derivatives as LRRK2 Inhibitors for Treating Parkinson's Disease” (ACS Med Chem Lett, 2021).
